Results taken from ChEMBL document CHEMBL1201862, “PubChem BioAssay data set” (2004).
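Test compounds were applied to cells in 96-well plates for 48 hours at 5 doses. GI50: concentration for 50% inhibition of growth.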 The source made the active and inactive calls. Rule as the data show it: active = GI50 up to about 1.1 µM and inactive = higher.

Tests used:
Assay in all cases: NCI anticancer screen, dose series, 48 h
[1] = tested on: 786-0
[2] = tested on: A498
[3] = tested on: A549
[4] = tested on: BT-549
[5] = tested on: CAKI-1
[6] = tested on: COLO 205
[7] = tested on: DU-145
[8] = tested on: HCC 2998
[9] = tested on: HCT-15
[10] = tested on: IGROV-1
[11] = tested on: LOX IMVI
[12] = tested on: MDA-MB-231
[13] = tested on: MDA-MB-435
[14] = tested on: NCI/ADR-RES
[15] = tested on: SF-295
[16] = tested on: SK-MEL-5
[17] = tested on: SN12C
[18] = tested on: SR
[19] = tested on: T47D

Measured: GI50

CC(=O)O[C@H]1C(=O)[C@@]2(C)[C@H]([C@H](OC(=O)c3ccccc3)[C@]3(O)C[C@H](OC(=O)[C@H](O)[C@@H](NC(=O)c4ccc(N(C)C)cc4)c4ccccc4)C(C)=C1C3(C)C)[C@]1(OC(C)=O)CO[C@@H]1C[C@@H]2O
0.337 µM: [9]
inactive: [14] 2.21 µM
active: [1] < 0.005 µM | [2] 0.0428 µM | [3] < 0.005 µM | [4] 0.0188 µM | [5] 0.339 µM | [6] < 0.005 µM | [7] < 0.005 µM | [8] < 0.005 µM | [10] 0.00962 µM | [11] < 0.005 µM | [12] 0.0543 µM | [13] < 0.005 µM | [15] 0.0119 µM | [16] < 0.005 µM | [17] < 0.005 µM | [18] < 0.005 µM

O=C1c2ccccc2-c2c1c(-c1ccc(O)cc1O)nc1ccc3ccccc3c21
inactive: [1] > 100 µM | [2] > 100 µM | [3] > 100 µM | [4] > 100 µM | [5] > 100 µM | [6] > 100 µM | [7] > 100 µM | [8] > 100 µM | [12] 27.8 µM | [13] > 100 µM | [14] > 100 µM | [15] > 100 µM | [17] > 100 µM | [19] > 100 µM
> 100 µM: [9]

c1ccc2c(c1)[nH]c1c3ccccc3sc21
> 100 µM: [9]
inactive: [1] > 100 µM | [2] > 100 µM | [3] 77.4 µM | [5] > 100 µM | [6] > 100 µM | [7] > 100 µM | [8] > 100 µM | [10] > 100 µM | [11] > 100 µM | [12] > 100 µM | [13] 99.1 µM | [14] > 100 µM | [15] 38.1 µM | [16] > 100 µM | [17] > 100 µM | [18] 23 µM | [19] 38.3 µM

C[C@H](CCC1=NCCN1)[C@H]1CC[C@H]2[C@@H]3CC[C@@H]4C[C@H](O)CC[C@]4(C)[C@H]3C[C@H](O)[C@]12C
inactive: [1] 16.3 µM | [2] 20.8 µM | [4] 18.2 µM | [5] 20.4 µM | [6] 10.2 µM | [7] 15.6 µM | [8] 13.5 µM | [10] 7.38 µM | [11] 11.2 µM | [12] 14.9 µM | [13] 14.5 µM | [14] > 100 µM | [15] 15.6 µM | [16] 11.8 µM | [17] 16.9 µM | [19] 13.6 µM
53.1 µM: [9]

CC1(C)CC[C@]2(C)[C@@H](O)C[C@]3(C)C(=CC[C@@H]4[C@@]5(C)CC[C@H](O)C(C)(C)[C@@H]5CC[C@]43C)[C@@H]2C1
inactive: [1] 33.3 µM | [2] 34.3 µM | [3] 31.7 µM | [4] 93.1 µM | [5] 34.5 µM | [6] 48.6 µM | [7] 40.6 µM | [10] 35.9 µM | [11] 16.4 µM | [12] 16.8 µM | [13] > 100 µM | [14] 40 µM | [15] 29.4 µM | [16] 35.3 µM | [17] 56.9 µM | [19] 9.79 µM
81.1 µM: [9]

Oc1cc(-c2ccccc2Cl)nc2cc3c(cc12)OCO3
inactive: [19] 26.6 µM
0.0371 µM: [9]
active: [1] 0.32 µM | [2] 0.116 µM | [3] 0.156 µM | [5] 0.0573 µM | [6] 0.0507 µM | [7] 0.121 µM | [8] 0.144 µM | [10] 0.173 µM | [11] 0.0541 µM | [12] 0.143 µM | [13] 0.0146 µM | [14] 0.0575 µM | [15] 0.107 µM | [16] 0.0435 µM | [17] 0.261 µM | [18] 0.0562 µM

CC(C)[Si](OCC1CC(C#N)OC(C)(C)O1)(C(C)C)C(C)C (configuration not stated)
inactive: [1] 18.8 µM | [2] 6.3 µM | [3] 30.8 µM | [5] 27.6 µM | [6] 17.3 µM | [8] 21.2 µM | [10] 28.2 µM | [11] 19.3 µM | [15] 14.9 µM | [16] 15.5 µM | [17] 32.4 µM | [18] 18.1 µM
27.8 µM: [9]

O=C1C(=O)N(C2CCCCC2)C(=S)N1C1CCCCC1
inactive: [1] > 100 µM | [2] > 100 µM | [3] > 100 µM | [5] > 100 µM | [6] > 100 µM | [7] > 100 µM | [8] > 100 µM | [10] > 100 µM | [11] > 100 µM | [12] > 100 µM | [13] > 100 µM | [14] > 100 µM | [15] > 100 µM | [16] > 100 µM | [17] > 100 µM | [18] > 100 µM | [19] > 100 µM
> 100 µM: [9]

O=c1c2cc([N+](=O)[O-])ccc2[nH]n1Cc1ccccn1
> 100 µM: [9]
inactive: [1] > 100 µM | [2] > 100 µM | [3] > 100 µM | [5] > 100 µM | [6] > 100 µM | [7] > 100 µM | [8] > 100 µM | [10] > 100 µM | [11] > 100 µM | [12] > 100 µM | [13] > 100 µM | [14] > 100 µM | [15] > 100 µM | [16] > 100 µM | [17] > 100 µM | [18] > 100 µM

Cc1cc2[nH]c3c(C#N)c(-c4ccccc4)c(/N=N/c4cccc(C(F)(F)F)c4)c(=O)n3c2cc1C
inactive: [1] 35.8 µM | [2] 88.5 µM | [3] 25.3 µM | [4] 44.2 µM | [5] 32 µM | [6] 42.2 µM | [8] 59.2 µM | [10] 21.8 µM | [11] 49.1 µM | [12] 85.5 µM | [13] 38.8 µM | [14] 34.3 µM | [15] 42.6 µM | [16] 15.7 µM | [17] 27.9 µM | [19] 20.3 µM
37 µM: [9]

CCOC(=O)c1csc(NC(=O)CN2CCCCC2)n1
> 100 µM: [9]
inactive: [2] > 100 µM | [3] > 100 µM | [5] > 100 µM | [6] > 100 µM | [7] > 100 µM | [8] > 100 µM | [10] > 100 µM | [11] > 100 µM | [12] > 100 µM | [13] > 100 µM | [14] > 100 µM | [15] > 100 µM | [16] > 100 µM | [19] > 100 µM

COC(=O)C1(NC(=O)C(N)CC(=O)O)C(C)C1C (configuration not stated)
> 100 µM: [9]
inactive: [1] > 100 µM | [2] > 100 µM | [3] > 100 µM | [5] > 100 µM | [6] > 100 µM | [7] > 100 µM | [10] > 100 µM | [11] > 100 µM | [12] > 100 µM | [13] > 100 µM | [14] > 100 µM | [15] > 100 µM | [16] > 100 µM | [17] > 100 µM | [18] > 100 µM | [19] > 100 µM

CC(C)(C)C(=O)Oc1ccc(/C=C/C(=O)c2ccc(OC(=O)C(C)(C)C)cc2)cc1
96.4 µM: [9]
inactive: [1] 36.7 µM | [2] 81.5 µM | [3] 67.6 µM | [5] 21.1 µM | [6] 69.7 µM | [7] 41 µM | [8] > 100 µM | [10] > 100 µM | [11] 44.5 µM | [12] > 100 µM | [13] 55.2 µM | [14] 27.5 µM | [15] 93.3 µM | [16] > 100 µM | [17] 42.8 µM | [18] 20.7 µM | [19] 91.2 µM

Cc1ccc(S(=O)(=O)/N=C(\NN)Nc2ccc(Cl)cc2)cc1
> 100 µM: [9]
inactive: [1] > 100 µM | [2] > 100 µM | [3] > 100 µM | [4] > 100 µM | [5] > 100 µM | [6] > 100 µM | [7] > 100 µM | [10] > 100 µM | [11] > 100 µM | [12] > 100 µM | [14] > 100 µM | [15] > 100 µM | [16] > 100 µM | [17] > 100 µM | [18] 83.9 µM | [19] 88.3 µM

Cc1ccc(S(=O)(=O)N/N=C2/CCC3(O)CC2(C)CCC2[C@H]3CC2(C)C)cc1 (some centres not stated)
27.1 µM: [9]
inactive: [1] 31.8 µM | [3] 27.3 µM | [4] 32.1 µM | [5] 52.6 µM | [6] 16.3 µM | [7] 36.6 µM | [10] 23.5 µM | [11] 11.2 µM | [13] 27.8 µM | [14] 28.2 µM | [15] 25.1 µM | [16] 16.5 µM | [17] 33.3 µM | [18] 35.9 µM | [19] > 100 µM

CC(=O)c1ccccc1NCC(=O)Nn1cnc2ccc(S(=O)(=O)Nc3ccccc3C(C)=O)cc2c1=O
inactive: [1] > 100 µM | [3] > 100 µM | [4] > 100 µM | [5] > 100 µM | [6] > 100 µM | [7] > 100 µM | [8] > 100 µM | [10] 2.53 µM | [11] > 100 µM | [12] > 100 µM | [13] > 100 µM | [14] > 100 µM | [15] > 100 µM | [17] > 100 µM | [18] > 100 µM
> 100 µM: [9]
